Read-outs that look alike come from different tables or passages of the source.
Tests used:
rat primary hepatocytes [1] = test system: rat primary hepatocytes
HepG2 cells [2] = settings: cited from earlier work
HepG2 cells [3] = assay: cells; settings: Homo sapiens; for Emax: HepG2, read-out: MMP assays efficacy (%) HepG2
rat primary hepatocytes [4] = assay: MMP assay in rat primary hepatocytes; settings: for IC50: read-out: MMP assays IC50 (µM) Rat Hepatocytes
HepG2 cells [5] = settings: for IC50: read-out: MMP assays IC50 (µM) HepG2
[6] = read-out: MMP assays IC50 (µM), qHTS-HepG2
[7] = rat hepatocytes, mean ± SD of three experiments
[8] = HepG2 cells, single number from one experiment
[9] = read-out: MMP assays IC50 (µM) qHTS-HepG2

Row | Compound | MMP assays efficacy (%) qHTS-HepG2 (HepG2 cells [2]) | MMP assays efficacy (%) Rat Hepatocytes (rat primary hepatocytes [4]; [7]) | IC50 (rat primary hepatocytes [4]; [7]) | MMP assays efficacy (%) HepG2 (HepG2 cells [5]; [8]) | IC50 (HepG2 cells [5]; [8]) | MMP assays IC50 (µM) Rat Hepatocytes (rat primary hepatocytes [4]; [7]) | IC50 (HepG2 cells [2]; [9]) | MMP assays IC50 (µM) HepG2 (HepG2 cells [5]; [8]) | further results
1 | O=C(CCCN1CCC2(CC1)C(=O)NCN2c1ccccc1)c1ccc(F)cc1 [Spiperone] | -65±12% | – | – | – | – | – | – | – | MMP assays efficacy (%) Rat Hepatocytes (rat primary hepatocytes [1]): -74±48%; Emax (HepG2 cells [3]): 54%
2 | TYROTHRICIN | – | – | – | – | – | – | – | – | MMP assays efficacy (%) Rat Hepatocytes (rat primary hepatocytes [1]): -89±25%
3 | COC(=O)Nc1nc2ccc(C(=O)c3ccccc3)cc2[nH]1 [Mebendazole] | -70±10% | – | – | – | – | – | – | – | MMP assays efficacy (%) Rat Hepatocytes (rat primary hepatocytes [1]): inactive; IC50 (HepG2 cells [2]; [6]): 2.45 ± 0.34 µM; IC50 (HepG2 cells [3]; HepG2, read-out: MMP assays IC50 (µM) HepG2): 2.34 µM; Emax (HepG2 cells [3]): 89%
4 | CCOC(=O)c1ccccc1C(=C1C=C(Br)C(=O)C(Br)=C1)c1cc(Br)c(O)c(Br)c1 [Tetrabromophenolphthalein ethyl ester] | -105±26% | -101±25% | 13.8 ± 0.94 µM | -129% | 26.6 µM | – | – | – | IC50 (HepG2 cells [2]; [6]): 23.8 ± 6.89 µM
5 | O=C1c2ccccc2C(=O)C1c1ccc2ccccc2n1 [D&C Yellow 11] | -76±6% | inactive | – | -75% | 0.44 µM | inactive | 0.38 ± 0.13 µM | – | –
6 | Nc1nc(-c2ccc([N+](=O)[O-])cc2)cs1 [2-Amino-4-(p-nitrophenyl)thiazole] | -59±9% | -53±16% | 20.6 ± 21.1 µM | -54% | 8.91 µM | – | 3.9 ± 1.78 µM | – | –
7 | C(=Cc1ccncc1)c1ccccc1 [Compound 4-Styrylpyridine] | -65±10% | inactive | – | inactive | – | inactive | 11.2 ± 5.54 µM | inactive | –
8 | CCCCCCCCCCn1cc[n+](C)c1.F[B-](F)(F)F [1-Decyl-3-methylimidazolium tetrafluoroborate] | -68±12% | -100±10% | 16.8 ± 7.73 µM | -104% | 7.08 µM | – | 3.87 µM | – | –
9 | O=C(Nc1ccc([N+](=O)[O-])cc1)Nc1ccc([N+](=O)[O-])cc1 [4,4'-Dinitrodiphenylurea] | -79±2% | – | – | – | – | – | 0.46 ± 0.06 µM | – | IC50 (rat primary hepatocytes [4]): 0.7 ± 0.46 µM; MMP assays efficacy (%) HepG2 (HepG2 cells [5]): -90%; IC50 (HepG2 cells [5]): 0.97 µM
10 | CCc1ccc(O)cc1 [Compound 4-Ethylphenol] | inactive | inactive | – | inactive | – | inactive | – | inactive | MMP assays IC50 (µM) qHTS-HepG2 (HepG2 cells [2]): inactive
11 | CC(=O)OCC(=O)[C@@]1(OC(C)=O)[C@@H](C)C[C@H]2[C@@H]3C[C@H](F)C4=CC(=O)C=C[C@]4(C)[C@@]3(F)[C@@H](O)C[C@@]21C [Diflorasone diacetate] | -50±7% | inactive | – | inactive | – | inactive | 28.7 ± 1.87 µM | inactive | –
12 | O=C=Nc1cccc(C(F)(F)F)c1 [1-Isocyanato-3-(trifluoromethyl)benzene] | -119±7% | -107±13% | 11.5 ± 3.69 µM | -108% | 6.31 µM | – | 3.28 ± 1.13 µM | – | –
13 | Diniconazole | – | – | – | – | – | – | 12.2 ± 3.53 µM | – | IC50 (rat primary hepatocytes [4]): 36 ± 28.6 µM; IC50 (HepG2 cells [5]): 8.91 µM
14 | CCOc1ccc2[nH]cc(C(=O)NCc3ccccc3)c(=O)c2n1 | -88±7% | -80±31% | 24 ± 16.6 µM | -92% | 15.8 µM | – | – | – | IC50 (HepG2 cells [2]; [6]): 14.8 ± 9.66 µM
15 | Cc1cc2c(cc1C(F)(F)F)N(C(=O)Nc1ccc(Oc3cccnc3C)nc1)CC2.Cl | -159±11% | -98±10% | 6.15 ± 3.62 µM | -104% | 2 µM | – | 14.4 ± 5.99 µM | – | –
16 | Cc1cccc(C(C)(C)C)c1O [Phenol, 2-(1,1-dimethylethyl)-6-methyl-] | inactive | inactive | – | inactive | – | inactive | – | inactive | MMP assays IC50 (µM) qHTS-HepG2 (HepG2 cells [2]): inactive

Row | Compound | MMP assays efficacy (%) qHTS-HepG2 (HepG2 cells [2]) | MMP assays efficacy (%) Rat Hepatocytes (rat primary hepatocytes [4]; [7]) | IC50 (rat primary hepatocytes [4]; [7]) | MMP assays efficacy (%) HepG2 (HepG2 cells [5]; [8]) | IC50 (HepG2 cells [5]; [8]) | MMP assays IC50 (µM) Rat Hepatocytes (rat primary hepatocytes [4]; [7]) | IC50 (HepG2 cells [2]; [9]) | MMP assays IC50 (µM) HepG2 (HepG2 cells [5]; [8]) | further results
17 | CCC(=O)O[C@]1(C(=O)SCF)[C@H](C)C[C@H]2[C@@H]3C[C@H](F)C4=CC(=O)C=C[C@]4(C)[C@@]3(F)[C@@H](O)C[C@@]21C [Fluticasone propionate] | -58±17% | inactive | – | inactive | – | inactive | – | inactive | IC50 (HepG2 cells [2]; [6]): 9.02 ± 1.71 µM
18 | C=CCc1cc(S(=O)(=O)c2ccc(O)c(CC=C)c2)ccc1O | -114±19% | -52±23% | 24.5 ± 19.9 µM | -107% | 15.8 µM | – | 45 ± 17.9 µM | – | –
19 | C[C@H]1C[C@H]2[C@@H]3CCC4=CC(=O)C=C[C@]4(C)[C@@]3(F)[C@@H](O)C[C@]2(C)[C@@]1(O)C(=O)CCl [Clobetasol] | -91±13% | -64±43% | 19.8 ± 15.6 µM | -87% | 17.3 µM | – | 14.4 ± 3.67 µM | – | –
20 | O=C1OC(OC(=O)c2cccnc2Nc2cccc(C(F)(F)F)c2)c2ccccc21 (stereo not drawn) [Talniflumate] | -105±19% | -85±2% | – | inactive | – | – | – | inactive | IC50 (rat primary hepatocytes [4]; Rattus norvegicus, Hepatocyte): 16 ± 6.68 µM; IC50 (HepG2 cells [2]; [6]): 27 ± 2.56 µM
21 | CC(C)c1ccccc1O [Compound 2-Isopropylphenol] | inactive | inactive | – | inactive | – | inactive | – | inactive | MMP assays IC50 (µM) qHTS-HepG2 (HepG2 cells [2]): inactive
22 | CCCCCCCCCCCCCC[N+](C)(C)Cc1ccccc1.O.O.[Cl-] | -76±17% | inactive | – | -114% | 13.8 µM | inactive | 16.4 ± 4.28 µM | – | –
23 | Cc1cc(C(C)(C)C)c(O)c(C)c1Cn1c(=O)n(Cc2c(C)cc(C(C)(C)C)c(O)c2C)c(=O)n(Cc2c(C)cc(C(C)(C)C)c(O)c2C)c1=O | -98±4% | -40±24% | 26.8 ± 25.3 µM | -82% | 44.7 µM | – | 12.2 ± 2.84 µM | – | –
24 | COc1ccc(C(=O)c2ccccc2)c(O)c1 [Compound 2-Hydroxy-4-methoxybenzophenone] | inactive | – | – | inactive | – | – | – | inactive | IC50 (rat primary hepatocytes [4]; Rattus norvegicus, Hepatocyte): 50.1 ± 18.9 µM; MMP assays IC50 (µM) qHTS-HepG2 (HepG2 cells [2]): inactive
25 | CCCCCCCCCCCCOC(=O)c1ccc(O)cc1 [Dodecylparaben] | -107±9% | inactive | – | -106% | 7.94 µM | inactive | 4.19 ± 1.07 µM | – | –
26 | COC(=O)C1=C(C)NC(C)=C(C(=O)O[C@@H]2CCCN(Cc3ccccc3)C2)[C@@H]1c1cccc([N+](=O)[O-])c1.Cl (racemic) [rac Benidipine hydrochloride] | -93±18% | inactive | – | -89% | 30.8 µM | inactive | – | – | IC50 (HepG2 cells [2]; [6]): 15 ± 3.18 µM
27 | Cc1nc2ccccc2s1 [Compound 2-Methylbenzothiazole] | inactive | inactive | – | inactive | – | inactive | – | inactive | MMP assays IC50 (µM) qHTS-HepG2 (HepG2 cells [2]): inactive
28 | CC(O)C(=O)O.CCOc1ccc2nc3cc(N)ccc3c(N)c2c1.O [Ethacridine lactate hydrate] | -103±8% | -98±24% | 10.2 ± 5.58 µM | – | 5.48 µM | – | 3.22 ± 0.55 µM | – | –
29 | CCCCCCCC/C=C\CCCCCCCC(N)=O [(9Z)-Octadec-9-enamide] | -67±17% | inactive | – | inactive | – | inactive | 41.6 ± 7.16 µM | inactive | –
30 | O=C(c1ccccc1)c1cc(Cl)ccc1O | -85±12% | -59±21% | 25.4 ± 21.3 µM | -98% | 39.8 µM | – | 29.1 ± 3.36 µM | – | –
31 | CN[C@H]1CC[C@@H](c2ccc(Cl)c(Cl)c2)c2ccc(S(N)(=O)=O)cc21 | -78±20% | -51±37% | 35.7 ± 5.79 µM | -84% | 10 µM | – | 8.31 ± 1.43 µM | – | –
32 | CC(C)(c1cc(Br)c(O)c(Br)c1)c1cc(Br)c(O)c(Br)c1 [3,3φ,5,5φ-Tetrabromobisphenol A] | -123±2% | -76±30% | 36.9 ± 12.6 µM | -98% | 17.8 µM | – | 13.2 ± 12.2 µM | – | –

Source: PMC6112376, “Comprehensive Analyses and Prioritization of Tox21 10K Chemicals Affecting Mitochondrial Function by in-Depth Mechanistic Studies” (Environmental Health Perspectives, 2018)
